US5350748A, “3-thio or amino substituted-benzo[b]thiophene-2-carboxamides and 3-oxygen, thio, or amino substituted-benzofuran-2-carboxamides as inhibitors of cell adhesion” (Warner-Lambert Company, priority 1993, dated 1994)

Tests used:
[1] = test system: HIV-1 activation in OM-10.1 cells; conditions: poster NCDDG/AIDS, San Diego, 1991; some 48 compounds evaluated; cited from earlier work
[2] = test system: human neutrophil adhesion to TNF-α-stimulated human umbilical vein endothelial cells (HUVEC); assay: Modified method: inhibition of human neutrophil adhesion to TNF-α-stimulated human umbilical vein endothelial cells (calcein-labeled neutrophils); format: cell-based; conditions: footnote a, neutrophil label not given, IC50 by linear regression from 33.3, 10.0, 3.3 and 1.0 μM, read-out: Adhesion ECA, IC50
Protocol: (§1) The 3-thiol, thioether, amino, alkylamino, or arylamino-benzo[b]thiophene-2-carboxamides and 3-alkoxy, aryloxy, thiol, thioether, amino, alkylamino, or arylamino-benzofuran-2-carboxamides have been shown in an in vitro assay to prevent the adhesion of neutrophils to human umbilical vein endothelial cells (HUVECS) stimulated with TNF-α. In this assay, HUVECS are stimulated with TNF-α for 4 hours, after which the cells are assayed for their ability to adhere to human neutrophils labeled with either ^51 Cr or calcein, a fluorescent dye. The details of this assay are described in the DETAILED DESCRIPTION.
(§2) Neutrophils were isolated from anticoagulant-treated venous blood obtained from healthy human volunteers according to the method of Ferrante and Thong [J. Immunol. Methods 24, 389-93 (1978)]. The cell preparations consisted of greater than 98% neutrophils.
Modified Method for Determining the Inhibition of Human Neutrophil Adhesion to TNF-α, IL-1α, and LPS Stimulated Human Umbilical Vein Endothelial Cells
The previous assay using ^51 Cr labeled human neutrophils has been modified. The neutrophils are now labeled with the fluorescent dye calcein. The current method allows for quantification of neutrophil adherence by fluorescence spectroscopy.
Second passage HUVEC (Clonetics Corporation, San Diego, Calif., CC-2617) were seeded into Coring (Corning glass works, Corning, N.Y.) 96-well cell culture plates at approximately 5×10^3 cells/well and grown to confluency in supplemented endothelial basal medium (EBM, MCDB-131, Clonetics, 10 ng/mL EGF, 1 μg/mL hydrocortisone, 0.4% bovine brain extract, 5% Fetal Bovine Serum). One day prior to running the assay, typically 3 days postseeding, the cultures were refed with 0.2 mL/well supplemented EBM (S-EBM).
Test compounds were prepared as 10 mL stock solutions at a concentration of 1.0 mM. The compounds were initially solubilized in 0.1 mL DMSO followed by the addition of 9.9 mL S-EBM. The drug preparations were then diluted in one step to a concentration of 66.6 μM or 200 μM. Solubilizations and dilutions were performed in polystyrene containers.
Recombinant human tumor necrosis factor-α (TNF, Genzyme, Boston, Mass., code TNF-H) was prepared at 400 U/mL in S-EBM. Stock TNF was prepared to 20,000 U/mL in Delbecco's phosphate-buffered saline (PBS, Gibco, Grand Island N.Y.) plus 0.1% BSA and stored at -70° C. HUVEC were washed one time with 0.2 mL warm unsupplemented EBM and then stimulated for 4hours at 37° C. with 200 U/mL TNF in the presence of 33.3 μM or 100 μM test compound. This was accomplished by adding 0.1 mL of 400 U/mL TNF and 0.1 mL 66.6 μM or 0.1 mL of 200 μM test compound. These additions were done slowly as to not disrupt the HUVEC monolayer. Each compound was tested in six wells. Unstimulated (vehicle control) and TNF-stimulated without test compound treatments were also run in each plate.
One hour prior to adding the neutrophils (isolated as previously described) to the HUVEC, neutrophils (5×10^6 /mL) were labeled for 30 minutes at 37° C. with 5 μM calcine-AM (Molecular Probes, Eugene, Oreg.) in Hanks' balanced salt solution plus 0.45% BSA. Stock calcein was prepared to 5mM in anhydrous DMSO and stored desiccated at -20° C. At the end of the incubation the cells were washed two times in cold HBSS and resuspended to a final concentration of 1×10^6 cells/mL in unsupplemented EBM.
At the end of the 4-hour stimulation and immediately prior to the addition of the neutrophils to the HUVEC monolayer, the plates were washed with 0.2 ml warm unsupplemented EBM to remove TNF and drug. Neutrophils (1×10^5 cells) were slowly added to each of the treated wells and incubated for 30 minutes at 37° C. At the end of the incubation the plates were washed two times with 0.2 mL warm unsupplemented EBM followed by a final addition of 0.1 mL for plate scanning.
The fluorescence was determined using a Millipore Cytofluor 2300 system (excitation=480, emission=530, sensitivity=4). […]

[3] = test system: HIV-1 activation in OM-10.1 cells; assay: Inhibition of activation of latent HIV-1 in chronically infected OM-10.1 cells; format: cell-based; conditions: Human immunodeficiency virus 1
Description: The cellular pathways involved in mediating the activating signal from the plasma membrane to the integrated virus, resulting in HIV-1 expression, are much less clear. Recently, the development of a reliable and simple system for evaluating compounds that could prevent activation of latent HIV was reported at the National […] (NCDDG)/AIDS by P. Feorino, S. T. Butera, T. M. Folks, and R. F. Schinazi, San Diego, Calif., Nov. 3-7, 1991. The assay system employed the OM-10.1 cell line, a unique chronically-infected promyelocytic clone which remains CD4+ until HIV-1 activation with tumor necrosis factor-α. The expression of CD4+ on the cell surface and the activity of reverse transcriptase are used as markers for quantitating viral expression. Alternatively, other HIV markers, such as protease activity, which are known to those of skill in the art can be used. OM-10.1 cells remain CD4^+ until viral activation and respond to tumor necrosis factor induction, and therefore, these cultures are used to conveniently and rapidly examine pharmacologics for an ability to prevent CD4^+ down modulation (decrease in expression of CD4^+ on the cell surface) and HIV-1 expression.
A variety of compounds known to have antiviral properties against either acutely or chronically infected cells were evaluated for their ability to inhibit HIV expression in these OM-10.1 cells. […]

[4] = test system: human neutrophil adhesion to TNF-α-stimulated human umbilical vein endothelial cells (HUVEC); assay: Inhibition of human neutrophil adhesion to TNF-α-stimulated human umbilical vein endothelial cells (51Cr-labeled neutrophils); format: cell-based; conditions: neutrophils labeled with Cr, read-out: Adhesion ECA, % inhibition
Protocol: as §1
Method for Determining the Inhibition of Human Neutrophil Adhesion to TNF-α, IL-1α, and LPS-Stimulated Human Umbilical Vein Endothelial Cells
as §2
Second passage human umbilical vein endothelial cells (HUVEC) (Clonetics, San Diego, Calif.) were seeded into Falcon 24-well cell culture plates (Becton Dickinson, Lincoln Park, N.J.) at approximately 2×10^4 cells per well. The cells were grown to confluent monolayers in endothelial basal medium (EBM, Clonetics) supplemented with 5% fetal calf serum (Hyclone Laboratories, Logan, Utah), 10 ng/mL EGF, 1 μg/mL hydrocortisone, 0.4% bovine brain extract (Clonetics) in 5% CO2 at 37° C.
Neutrophils (30×10^6) were labeled for 60 minutes at 37° C. with 100 μCi Na^51 CrO4 (ICN Biomedicals, Costa Mesa, Calif.) in 2.0 mL Ca^2+ - and Mg^2+ -free Hanks' balanced salt solution (HBSS, GIBCO Laboratories, Grand Island, N.Y.). […]
Stimulation of HUVEC with tumor necrosis factor-α (TNF-α) (Genzyme, Cambridge, Mass.), interleukin (IL-1α) (Genzyme) or E. coli 0111: B4 lipopolysaccharide (LPS) (Sigma) in the presence or absence of drug was initiated 4 hours prior to the addition of neutrophils. […] Lysates were collected and the radioactivity in each well was determined by gamma ray spectroscopy.

Row | Molecule | inhibition of activation of HIV-1 in OM-10.1 cells [1] | inhibition at 100 µM [4] | further results
1 | Cc1cn([C@H]2C[C@H](F)[C@@H](CO)O2)c(=O)[nH]c1=O [3'-fluoro-3'-deoxythymidine (FLT), 3'-fluoro-3'-deoxythymidine] | modest inhibitors of the activation of HIV-1 | – | –
2 | COc1ccc2sc(C(N)=O)c(SC(C)C)c2c1 [Example 1, 5-Methoxy-3-[(1-methylethyl)thio]benzo[b]thiophene-2-carboxamide] | – | – | IC50 [2]: 11.7 µM; IC50 [3]: 0.4 µM
3 | CC(C)Sc1c(C(N)=O)sc2ccccc12 [Example 2, 3-[(1-Methylethyl)thio]benzo[b]thiophene-2-carboxamide] | – | 34% | –
4 | COc1ccc2sc(C(N)=O)c(SC)c2c1 [Example 4, 5-Methoxy-3-(methylthio)benzo[b]thiophene-2-carboxamide] | – | 81% | –
5 | COc1ccc2sc(C(N)=O)c(Sc3ccccc3)c2c1 [Example 5, 5-Methoxy-3-(phenylthio)benzo[b]thiophene-2-carboxamide] | – | 48% | –
6 | CC(=O)N(O)CCCCCNC(=O)CCC(=O)N(O)CCCCCNC(=O)CCC(=O)N(O)CCCCCN [desferrioxamine] | modest inhibitors of the activation of HIV-1 | – | –
7 | interferon Y: interferon Y, considered modest inhibitor of the activation of HIV-1 (probably interferon gamma) | modest inhibitors of the activation of HIV-1 | – | –
